Experimental data as given in US4795752A, “Amide derivatives and antiallergic agents containing the same” (Terumo Kabushiki Kaisha, priority 1985, dated 1989).

Test system: PCA reaction
Assay: PCA reaction-inhibitory effects in rats (passive cutaneous anaphylaxis, oral administration, Evans Blue dye exudation)
Assay type: in vivo, rats (female Sprague-Dawley)
Details: for Inhibition (%) mean ± SE: one hour before challenge; for ED50: Rattus norvegicus, from the percent inhibition-concentration graph, read-out: ID50 against exudation of the dye
Method: DNP-ascaris (1 mg) prepared by combining a swine ascaris extract with 2,4-dinitrophenyl sulfate was mixed with 20 mg of aluminum hydroxide gel. The mixture was administered to rats subcutaneously on the back, and at the same time the animals were intraperitoneally given 2×10^10 dead Bordetella pertussis respectively. The same procedures were repeated after 14 days, and blood sample was obtained after 21 days to produce antisera.
Female Sprague-Dawley strain rats (8 weeks old) were sensitized by subcutaneously administering 0.1 ml of 1:256 diluted antisera (titer=1024)respectively on the grained back. After 48 hours, groups of four rats were orally given the amide derivatives produced in the examples above at various concentrations. After one hour, the rats were challenged by intravenously administering a 0.5% physiological saline solution of Evans Blue containing 1 mg of the DNP-ascaris from the tail. After 30 minutes, the animal was sacrificed by bleeding and the portion of the skin with the dye exuded was cut off. The cut skin was treated with 1N--KOH solution, and the dye was extracted by adding 9 ml of 0.6N-phosphoric acid-acetone (5:13) mixture. The supernatant from centrifugal separation was measured for absorbancy at 620 nm to determine amount of the dye. Percent inhibition at each of the concentrations of the amide derivatives was calculated in comparison with amount of the dye for control group. 50% Inhibitory concentration (ID50) of the amide derivatives against exudation of the dye was determined from the percent inhibition-concentration graph. Results are shown in Table-I. Percent inhibition of tranilast, an antiallergic agent commercially available from Kissei Pharmaceutical Co., Ltd. under the trade name of Rizaben against PCA reaction was also shown in Table-I. As shown in Table-I, the amide derivatives of the invention produced high PCA reaction-inhibitory effects.

SMILES | Inhibition (%) mean ± SE (3 mg/kg) | Inhibition (%) mean ± SE (10 mg/kg) | Inhibition (%) mean ± SE (30 mg/kg) | ED50 | Inhibition (%) mean ± SE (100 mg/kg) | Inhibition (%) mean ± SE (200 mg/kg) | Inhibition (%) mean ± SE (300 mg/kg)
CCOC(=O)Oc1ccc(/C=C/C(=O)NCCN2CCC(OC(c3ccccc3)c3ccccc3)CC2)cc1OC [Example 2, 1-[2-[3-(3-methoxy-4-ethoxycarbonyloxyphenyl)-2-propenoyl]-aminoethyl]-4-benzhydroxypiperidine] | 20 ± 15% | 41 ± 16% | 64 ± 5% | 15 mg/kg |  |  | 
COc1ccc(/C=C/C(=O)Nc2ccccc2C(=O)O)cc1OC [Control, tranilast, reference compound] |  |  |  | > 300 mg/kg | 37 ± 8% | 40 ± 10% | 42 ± 5%
CCOC(=O)Oc1ccc(/C=C/C=C/C(=O)NCCN2CCC(OC(c3ccccc3)c3ccccc3)CC2)cc1OC(=O)OCC [Example 5, 1-[2-[5-(3,4-diethoxycarbonyloxyphenyl)-2,4-pentadienoyl]aminoethyl]-4-benzhydroxypiperidine] | 30 ± 16% | 55 ± 10% | 75 ± 4% |  |  |  | 
CCOC(=O)Oc1ccc(/C=C/C(=O)NCCN2CCC(OC(c3ccccc3)c3ccccc3)CC2)cc1OC(=O)OCC [Example 4] | 22 ± 14% | 46 ± 10% | 68 ± 7% | 12 mg/kg |  |  | 
CCOC(=O)Oc1ccc(/C=C/C=C/C(=O)NCCCN2CCN(C(c3ccccc3)c3ccccc3)CC2)cc1OC [Example 3, 1-[3-[5-(3-methoxy-4-ethoxycarbonyloxyphenyl)-2,4-pentadienoyl]aminopropyl]-4-benzhydrylpiperazine] |  | 19 ± 14% | 38 ± 15% | 55 mg/kg | 63 ± 5% |  | 
CCOC(=O)Oc1ccc(/C=C/C=C/C(=O)NCCN2CCC(OC(c3ccccc3)c3ccccc3)CC2)cc1OC [Example 1, 1-[2-[5-(3-methoxy-4-ethoxycarbonyloxyphenyl)-2,4-pentadienoyl]aminoethyl]-4-benzhydroxypiperidine] | 26 ± 15% | 51 ± 18% | 71 ± 6% | 10 mg/kg |  |  | 
